Measurements: US6730295B2, “Anionic polymers as species specific antibacterial agents” (Genzyme Corporation, priority 2000, dated 2004)

Columns and labels:
Test in all cases: MIC assay (NCCLS broth microdilution)
Assay type in all cases: cell-based
Branhamella catarrhalis = conditions: species 6 = Branhamella catarrhalis; 18-24 hr at 35° C., Mueller-Hinton broth
Protocol: (§1) The minimum inhibitory concentration (MIC) assay is performed according to the Performance Standards for Antimicrobial Susceptibility Testing, 1998, vol. M 100-S8, Eighth Informational Supplement, NCCLS, 940 West Valley Road, Suite 1400, Wayne, Pa. 19087.
(§2) Polymers to be tested were dissolved in 0.85% saline to a final concentration of either 830 or 1000 μg/ml, the pH was adjusted to 7.0 and the solution was filter-sterilized through a 0.22 μm filter. Two-fold serial dilutions of polymer were prepared in Mueller-Hinton broth with cations aliquotted into 96-well microtiter plates. The plates were then inoculated with […] of target organism, and incubated 18-24 hr at 35° C. The optical density (OD) was then read at 590 nm, and microorganism growth was scored (OD >0.1 is considered to be growth; OD <0.1 is considered growth inhibition). The MIC value was defined as the lowest concentration of compound which inhibits growth.

S. pneumoniae = conditions: species 4 = S. pneumoniae; 18-24 hr at 35° C., Mueller-Hinton broth
Protocol: as §1, §2

N. meningitidis = conditions: species 5 = N. meningitidis; 18-24 hr at 35° C., Mueller-Hinton broth
Protocol: as §1, §2

E. coli = conditions: species 1 = E. coli; 18-24 hr at 35° C., Mueller-Hinton broth
Protocol: as §1, §2

S. sanguis = conditions: species 3 = S. sanguis; 18-24 hr at 35° C., Mueller-Hinton broth
Protocol: as §1, §2

E. Faecium = conditions: species 2 = E. Faecium; 18-24 hr at 35° C., Mueller-Hinton broth
Protocol: as §1, §2

- minimum inhibitory concentration (MIC) (Branhamella catarrhalis): 9
- minimum inhibitory concentration (MIC) (S. pneumoniae): 28
- minimum inhibitory concentration (MIC) (N. meningitidis): 28
- minimum inhibitory concentration (MIC) (E. coli): >83
- minimum inhibitory concentration (MIC) (S. sanguis): 28
- minimum inhibitory concentration (MIC) (E. Faecium): >83
SMILES: CCCCCCCCCCCCOS(=O)(=O)[O-].[Na+] [sodium dodecyl sulfate]
